According to paper PMC4501388 (European journal of medicinal chemistry, 2015):
“And” between values parts separate entries of the source, which are not always exact repeats. Equal entries are not always repeated.

Key:
TK1 [1] = target: T1, TK1 (Homo sapiens, UniProt P04183); experiment: Phosphate transfer assay; type: biochemical; details: 100 μM nucleoside analogue and 100 μM ATP
T1 sequence (P04183 1-234): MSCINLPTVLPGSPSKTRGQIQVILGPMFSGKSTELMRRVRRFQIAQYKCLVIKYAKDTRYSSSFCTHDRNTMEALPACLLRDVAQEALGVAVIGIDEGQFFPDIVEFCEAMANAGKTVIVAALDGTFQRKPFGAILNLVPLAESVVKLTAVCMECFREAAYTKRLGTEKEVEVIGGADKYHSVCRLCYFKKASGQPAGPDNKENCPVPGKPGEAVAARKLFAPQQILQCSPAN

[2] = test system: TK1(+)- and TK1(−) L929 cells; details: cited from earlier work
[3] = test system: rats bearing intracerebral RG2 gliomas; experiment: In vivo biodistribution study, boron determination by ICP-OES; design: species or system rat
TK1 [4] = target: T1, TK1; experiment: Competitive TK1 inhibition studies; details: 0.5 μM dThd, 5 mM ATP, 0–250.00 μM nucleoside analogue
RG2 glioma cells = experiment: In vitro metabolomic HRMS study; type: cell-based, rat
[5] = Stability during storage in aqueous solutions; type: physicochemical
TK1 [6] = target: T1, TK1; experiment: Enzyme kinetic studies; type: biochemical; details: 1.95–500 μM nucleoside analogue and 100 μM ATP

3-({2-[3-(closo-1,7-carboranyl)propyl]amino}-2-oxoethyl)thymidine [Compound 29]
rPR (phosphorylation rate relative to that of dThd) (TK1 [1]): 14.5 ± 4.8%

3-({2-[4-(closo-1,7-Carboranyl)butyl]amino}ethyl)thymidine [Compound 18]
rPR (phosphorylation rate relative to that of dThd) (TK1 [1]): 44.4 ± 8.7%

3-[5-{2-(2,3-dihydroxyprop-1-yl)-o-carboran-1-yl}pentan-1-yl]thymidine [Compound 2]
Di- and triphosphorylation ([2]; TK1(+) L929 cells): did not seem to occur
Intracellular monophosphate metabolite formation ([2]; TK1(+) vs TK1(−) L929 cells, tritiated compound): production of tritiated 2-MP in TK1(+) L929 cells but not in their TK1(−) L929 counterparts
Boron concentration, Tumor ([3]; 100 μg boron i.c. by ALZET pump over 24 h, RG2 glioma, Fischer rats): 8.9 µg/g and 8.8 ± 2.9 µg/g
Ratio T/Bl (tumor/blood ratio) ([3]; tumor to blood boron ratio, i.c. over 24 h): 9.3
Ratio T/B ([3]; tumor to brain boron ratio, i.c. over 24 h): 4.3
rPR (phosphorylation rate relative to that of dThd) (TK1 [1]): 40.0% and 40.0 ± 11.2%
IC50 (TK1 [4]): 37.5 ± 6.3 µM
Di- and triphosphate metabolites (RG2 glioma cells; RG2 cells, HRMS positive and negative ion mode): could not be detected
5′-Monophosphate metabolite formation (RG2 glioma cells; TK1(+) RG2 cells, 17.5 μM, 2 hours, HRMS): monophosphorylated
Stability during storage [5]: stable
Km (TK1 [6]): 24.3 ± 2.1 µM
kcat (TK1 [6]): 5.1 s⁻¹
rkcat/Km (kcat/Km relative to that of 1) (TK1 [6]): 5.8%

3-{[3-(closo-1,7-Carboranyl)propyl]amino}thymidine [Compound 9]
rPR (phosphorylation rate relative to that of dThd) (TK1 [1]): ~ 30%

3-({2-[4-(closo-1,7-carboranyl)butyl]amino}-2-oxoethyl)thymidine [Compound 30]
rPR (phosphorylation rate relative to that of dThd) (TK1 [1]): 12.3 ± 8.7%

3-({3-[4-(closo-1,7-Carboranyl)butyl]amino}propyl)thymidine [Compound 20]
rPR (phosphorylation rate relative to that of dThd) (TK1 [1]): 19.5 ± 5.3%

3-({2-[2-(closo-1,7-Carboranyl)ethyl]amino}-2-oxoethyl)thymidine [Compound 28]
rPR (phosphorylation rate relative to that of dThd) (TK1 [1]): 19.2 ± 4.5%

3-({4-[4-(closo-1,7-Carboranyl)butyl]amino}butyl)thymidine [Compound 22]
rPR (phosphorylation rate relative to that of dThd) (TK1 [1]): 38% and 38.0 ± 6.5%
IC50 (TK1 [4]): > 250 µM
Stability during storage [5]: stable
Km (TK1 [6]): 39.8 ± 10.4 µM
kcat (TK1 [6]): 5.4 s⁻¹
rkcat/Km (kcat/Km relative to that of 1) (TK1 [6]): 3.7%

3-({3-[3-(closo-1,7-Carboranyl)propyl]amino}propyl)thymidine [Compound 19]
rPR (phosphorylation rate relative to that of dThd) (TK1 [1]): 18.8 ± 4.8%

3-({2-[2-(closo-1,7-Carboranyl)ethyl]amino}ethyl)thymidine [Compound 16]
rPR (phosphorylation rate relative to that of dThd) (TK1 [1]): 35.2 ± 5.3%

3-({4-[3-(closo-1,7-Carboranyl)propyl]amino}butyl)thymidine [Compound 21]
rPR (phosphorylation rate relative to that of dThd) (TK1 [1]): 45% and 45.2 ± 3.8%
IC50 (TK1 [4]): > 250 µM
Stability during storage [5]: stable
Km (TK1 [6]): 80.1 ± 37.6 µM
kcat (TK1 [6]): 5.9 s⁻¹
rkcat/Km (kcat/Km relative to that of 1) (TK1 [6]): 2.0%

3-({2-[3-(closo-1,7-Carboranyl)propyl]amino}ethyl)thymidine [Compound 17]
rPR (phosphorylation rate relative to that of dThd) (TK1 [1]): 24.5 ± 7.8%
